In brackets after ≈: the same amount, converted by molar mass.
How the values were obtained:
[1] = system: C. albicans (ATCC 24433); assay: Antifungal broth microdilution assay (EUCAST EDef 7.1), C. albicans; assay type: cell-based; conditions: for MIC50: Candida albicans, ATCC24433, read-out: Minimum inhibitory concentration (MIC50)
Procedure: (§1) The anticandidal effect of compounds 6a–6s were screened in accord with the EUCAST definitive (EDef 7.1) method. Ketoconazole was employed as a reference drug. The in vitro growth inhibitory activity of the compounds were tested against C. albicans (ATCC 24433), C. glabrata (ATCC 90030), C. krusei (ATCC 6258) and C. parapsilosis (ATCC 22019). The results were obtained as MIC values and MIC readings were accomplished twice for each chemical agent. After incubating overnight at 37 °C, the fungal strains were sustained in Roswell Park Memorial Institute (RPMI) medium.
(§2) Adjustment of the inoculum density to a 0.5 McFarland turbidity standard was carried out by using a spectrophotometer. The resulting inoculum suspension contained 0.5 × 10^5–2.5 × 10^5 cfu/mL for fungi. The two-fold serial dilutions technique were applied and the test was carried out in Mueller–Hinton broth and RPMI at pH7 and the test was performed for medium at pH7. The last well on the microplates containing only inoculated broth and the last well with no growth of microorganism represent controls and the MIC50 in μg/mL, respectively. DMSO was used as solvent. Further dilutions of the compounds and standard drugs in the RPMI medium were prepared in the required quantities at contcentrations of 800, 400, 200, 100, 50, 25, 12.5, 6.25, 3.125, 1.5625 and 0.78 µg/mL. After a 24 h incubation of the completed plates, resazurin (20 µg/mL) was added into each well in order to observe the fungal growth. […] Each experiment in antifungal assay was performed twice.

[2] = system: C. glabrata (ATCC 90030); assay: Antifungal broth microdilution assay (EUCAST EDef 7.1), C. glabrata; assay type: cell-based; conditions: for MIC50: Nakaseomyces glabratus, ATCC90030, read-out: Minimum inhibitory concentration (MIC50)
Procedure: as §1, §2

[3] = system: C. krusei (ATCC 6258); assay: Antifungal broth microdilution assay (EUCAST EDef 7.1), C. krusei; assay type: cell-based; conditions: for MIC50: Pichia kudriavzevii, ATCC6258, read-out: Minimum inhibitory concentration (MIC50)
Procedure: as §1, §2

[4] = system: C. parapsilosis (ATCC 22019); assay: Antifungal broth microdilution assay (EUCAST EDef 7.1), C. parapsilosis; assay type: cell-based; conditions: C. parapsilopsis; for MIC50: Lodderomyces parapsilosis, ATCC22019, read-out: Minimum inhibitory concentration (MIC50)
Procedure: as §1, §2

[5] = system: ergosterol biosynthesis in C. krusei; assay: Ergosterol level quantification by LC-MS-MS in C. krusei; assay type: cell-based; conditions: Pichia kudriavzevii, mean ± SD
Procedure: The ergosterol level was determined using the method described by Breivik and Owades with adjustments according to [2]. C. krusei was inoculated with Sabouraud dextrose broth (Difco) supplemented with compounds 6e, 6k, 6r and the positive control, ketoconazole. The cultures were incubated, and the stationary-phase cells were harvested. After the addition of 25% alcoholic potassium hydroxide solution, cell suspensions were separated and incubated. Sterols were extracted by sterile distilled water and chloroform, and then the extract was injected into the LC-MS-MS system (Shimadzu LCMS 8040, Kyoto, Japan). The ergosterol quantity in the negative control samples was considered as 100%. All concentrations were analysed in quadruplicate, and the results were presented as mean ± standard deviation (SD).

Structure (SMILES) | MIC50 [1] | MIC50 [2] | MIC50 [3] | MIC50 [4] | melting point | Minimum inhibitory concentration (MIC50) [1] | Minimum inhibitory concentration (MIC50) [2] | Minimum inhibitory concentration (MIC50) [3] | Minimum inhibitory concentration (MIC50) [4] | inhibition at 0.78 µg/mL ([5]; 0.78 µg/mL) | inhibition at 1.56 µg/mL ([5]; 1.56 µg/mL) | inhibition at 3.12 µg/mL ([5]; 3.12 µg/mL)
O=C(CSc1nnc(CCSc2nnc(NC3CCCCC3)s2)o1)Nc1ccccc1 [Compound 6g, 2-[[5-[2-[[5-(Cyclohexylamino)-1,3,4-thiadiazol-2-yl]thio]ethyl]-1,3,4-oxadiazol-2-yl]thio]-N-phenyl acetamide] | – | – | – | – | – | 50 µg/mL (≈ 105 µM) | 50 µg/mL (≈ 105 µM) | 50 µg/mL (≈ 105 µM) | 50 µg/mL (≈ 105 µM) | – | – | –
COc1ccc2nc(NC(=O)CSc3nnc(CCSc4nnc(NC5CCCCC5)s4)o3)sc2c1 [Compound 6o, 2-[[5-[2-[[5-(Cyclohexylamino)-1,3,4-thiadiazol-2-yl]thio]ethyl]-1,3,4-oxadiazol-2-yl]thio]-N-(6-methoxybenzothiazol-2-yl)acetamide] | 100 µg/mL (≈ 177 µM) | 25 µg/mL (≈ 44.3 µM) | 25 µg/mL (≈ 44.3 µM) | 50 µg/mL (≈ 88.7 µM) | – | – | – | – | – | – | – | –
O=C(CSc1nnc(CCSc2nnc(NC3CCCCC3)s2)o1)c1ccc(Cl)cc1 [Compound 6d, 2-[[5-[2-[[5-(Cyclohexylamino)-1,3,4-thiadiazol-2-yl]thio]ethyl]-1,3,4-oxadiazol-2-yl]thio]-1-(4-chlorophenyl)ethan-1-one] | 100 µg/mL (≈ 202 µM) | 25 µg/mL (≈ 50.4 µM) | 50 µg/mL (≈ 101 µM) | 50 µg/mL (≈ 101 µM) | 167 °C | – | – | – | – | – | – | –
Cc1ccc2nc(NC(=O)CSc3nnc(CCSc4nnc(NC5CCCCC5)s4)o3)sc2c1 [Compound 6n, 2-[[5-[2-[[5-(Cyclohexylamino)-1,3,4-thiadiazol-2-yl]thio]ethyl]-1,3,4-oxadiazol-2-yl]thio]-N-(6-methylbenzothiazol-2-yl)acetamide] | 100 µg/mL (≈ 183 µM) | 25 µg/mL (≈ 45.6 µM) | 50 µg/mL (≈ 91.3 µM) | 25 µg/mL (≈ 45.6 µM) | 209 °C | – | – | – | – | – | – | –
O=C(CSc1nnc(CCSc2nnc(NC3CCCCC3)s2)o1)Nc1ccc(F)cc1 [Compound 6l, 2-[[5-[2-[[5-(Cyclohexylamino)-1,3,4-thiadiazol-2-yl]thio]ethyl]-1,3,4-oxadiazol-2-yl]thio]-N-(4-fluorophenyl)acetamide] | 100 µg/mL (≈ 202 µM) | 50 µg/mL (≈ 101 µM) | 50 µg/mL (≈ 101 µM) | 25 µg/mL (≈ 50.5 µM) | – | – | – | – | – | – | – | –
O=C(CSc1nnc(CCSc2nnc(NC3CCCCC3)s2)o1)Nc1nc2ccc(F)cc2s1 [Compound 6s, 2-[[5-[2-[[5-(Cyclohexylamino)-1,3,4-thiadiazol-2-yl]thio]ethyl]-1,3,4-oxadiazol-2-yl]thio]-N-(6-fluorobenzothiazol-2-yl)acetamide] | 50 µg/mL (≈ 90.6 µM) | 6.25 µg/mL (≈ 11.3 µM) | 50 µg/mL (≈ 90.6 µM) | 50 µg/mL (≈ 90.6 µM) | – | – | – | – | – | – | – | –
COc1ccc(C(=O)CSc2nnc(CCSc3nnc(NC4CCCCC4)s3)o2)cc1 [Compound 6c, 2-[[5-[2-[[5-(Cyclohexylamino)-1,3,4-thiadiazol-2-yl]thio]ethyl]-1,3,4-oxadiazol-2-yl]thio]-1-(4-methoxyphenyl)ethan-1-one] | 100 µg/mL (≈ 203 µM) | 25 µg/mL (≈ 50.8 µM) | 100 µg/mL (≈ 203 µM) | 50 µg/mL (≈ 102 µM) | 120 °C | – | – | – | – | – | – | –

More lines, main results first:

MIC50 [1] | MIC50 [2] | MIC50 [3] | MIC50 [4] | melting point | Minimum inhibitory concentration (MIC50) [1] | Minimum inhibitory concentration (MIC50) [2] | Minimum inhibitory concentration (MIC50) [3] | Minimum inhibitory concentration (MIC50) [4] | Structure (SMILES) | inhibition at 0.78 µg/mL ([5]; 0.78 µg/mL) | inhibition at 1.56 µg/mL ([5]; 1.56 µg/mL) | inhibition at 3.12 µg/mL ([5]; 3.12 µg/mL)
50 µg/mL (≈ 105 µM) | 50 µg/mL (≈ 105 µM) | 100 µg/mL (≈ 210 µM) | 50 µg/mL (≈ 105 µM) | 136 °C | – | – | – | – | Cc1ccc(C(=O)CSc2nnc(CCSc3nnc(NC4CCCCC4)s3)o2)cc1 [Compound 6b, 2-[[5-[2-[[5-(Cyclohexylamino)-1,3,4-thiadiazol-2-yl]thio]ethyl]-1,3,4-oxadiazol-2-yl]thio]-1-(4-methylphenyl)ethan-1-one] | – | – | –
25 µg/mL (≈ 48.9 µM) | 50 µg/mL (≈ 97.8 µM) | 50 µg/mL (≈ 97.8 µM) | 50 µg/mL (≈ 97.8 µM) | – | – | – | – | – | O=C(CSc1nnc(CCSc2nnc(NC3CCCCC3)s2)o1)Nc1ccc(Cl)cc1 [Compound 6j, 2-[[5-[2-[[5-(Cyclohexylamino)-1,3,4-thiadiazol-2-yl]thio]ethyl]-1,3,4-oxadiazol-2-yl]thio]-N-(4-chlorophenyl)acetamide] | – | – | –
25 µg/mL (≈ 54.2 µM) | 50 µg/mL (≈ 108 µM) | 50 µg/mL (≈ 108 µM) | 50 µg/mL (≈ 108 µM) | 141 °C | – | – | – | – | O=C(CSc1nnc(CCSc2nnc(NC3CCCCC3)s2)o1)c1ccccc1 [Compound 6a, 2-[[5-[2-[[5-(Cyclohexylamino)-1,3,4-thiadiazol-2-yl]thio]ethyl]-1,3,4-oxadiazol-2-yl]thio]-1-phenylethan-1-one] | – | – | –
50 µg/mL (≈ 93.7 µM) | 50 µg/mL (≈ 93.7 µM) | 50 µg/mL (≈ 93.7 µM) | 25 µg/mL (≈ 46.8 µM) | 214 °C | – | – | – | – | O=C(CSc1nnc(CCSc2nnc(NC3CCCCC3)s2)o1)Nc1nc2ccccc2s1 [Compound 6m, 2-[[5-[2-[[5-(Cyclohexylamino)-1,3,4-thiadiazol-2-yl]thio]ethyl]-1,3,4-oxadiazol-2-yl]thio]-N-(benzothiazol-2-yl)acetamide] | – | – | –
25 µg/mL (≈ 50.9 µM) | 100 µg/mL (≈ 204 µM) | 100 µg/mL (≈ 204 µM) | 50 µg/mL (≈ 102 µM) | – | – | – | – | – | Cc1ccc(NC(=O)CSc2nnc(CCSc3nnc(NC4CCCCC4)s3)o2)cc1 [Compound 6h, 2-[[5-[2-[[5-(Cyclohexylamino)-1,3,4-thiadiazol-2-yl]thio]ethyl]-1,3,4-oxadiazol-2-yl]thio]-N-(4-methylphenyl)acetamide] | – | – | –
0.78 µg/mL (≈ 1.47 µM) | 1.56 µg/mL (≈ 2.94 µM) | 1.56 µg/mL (≈ 2.94 µM) | 1.56 µg/mL (≈ 2.94 µM) | – | – | – | – | – | CC(=O)N1CCN(c2ccc(OCC3COC(Cn4ccnc4)(c4ccc(Cl)cc4Cl)O3)cc2)CC1 (stereo not drawn) [Ketoconazole, reference compound] | 61 ± 2.94% | 73.1 ± 4.16% | 84.6 ± 3.01%
50 µg/mL (≈ 104 µM) | 50 µg/mL (≈ 104 µM) | 25 µg/mL (≈ 52.1 µM) | 50 µg/mL (≈ 104 µM) | 131 °C | – | – | – | – | O=C(CSc1nnc(CCSc2nnc(NC3CCCCC3)s2)o1)c1ccc(F)cc1 [Compound 6f, 2-[[5-[2-[[5-(Cyclohexylamino)-1,3,4-thiadiazol-2-yl]thio]ethyl]-1,3,4-oxadiazol-2-yl]thio]-1-(4-fluorophenyl)ethan-1-one] | – | – | –
50 µg/mL (≈ 88 µM) | 25 µg/mL (≈ 44 µM) | 25 µg/mL (≈ 44 µM) | 50 µg/mL (≈ 88 µM) | 213 °C | – | – | – | – | O=C(CSc1nnc(CCSc2nnc(NC3CCCCC3)s2)o1)Nc1nc2ccc(Cl)cc2s1 [Compound 6p, 2-[[5-[2-[[5-(Cyclohexylamino)-1,3,4-thiadiazol-2-yl]thio]ethyl]-1,3,4-oxadiazol-2-yl]thio]-N-(6-chlorobenzothiazol-2-yl)acetamide] | – | – | –
25 µg/mL (≈ 49.3 µM) | 100 µg/mL (≈ 197 µM) | 100 µg/mL (≈ 197 µM) | 50 µg/mL (≈ 98.7 µM) | – | – | – | – | – | COc1ccc(NC(=O)CSc2nnc(CCSc3nnc(NC4CCCCC4)s3)o2)cc1 [Compound 6i, 2-[[5-[2-[[5-(Cyclohexylamino)-1,3,4-thiadiazol-2-yl]thio]ethyl]-1,3,4-oxadiazol-2-yl]thio]-N-(4-methoxyphenyl)acetamide] | – | – | –
